# Measured values taken from PMC5064022, “KCNE1 induces fenestration in the Kv7.1/KCNE1 channel complex that allows for highly specific pharmacological targeting” (Nature Communications, 2016).
# Legend:
# Format in all cases: cell-based
# [1] = target: I274A/KCNE1 (Homo sapiens, UniProt P15382+P51787, I274A); experiment: TEVC, mutant channel I274A/KCNE1 in oocytes; conditions: Kv7.1 I274A mutant with KCNE1
# From the text: (§1) Ala scanning was previously used to identify specific residues that form the putative binding sites for chromanol and benzodiazepine derivatives that are considered to be classical pore blockers of Kv7.1 channels. Here we applied Ala scanning to multiple segments of the Kv7.1 α-subunit to identify potential AC-1 interaction sites in the extended pore region of Kv7.1/KCNE1 channels (Fig. 3a). In cases where mutation to Ala precluded channel function, alternative residues were introduced. […] Instead, most of these crucial residues cluster around a ‘window' formed uniquely in the preopen–closed state model of the Kv7.1/KCNE1 channel[33] (Fig. 3c, magenta residues). […]
# (§2) Template cDNAs (wildtype or mutant human Kv7.1 in pSGEM, wildtype human KCNE1 in pSP64) were linearized with a suitable restriction enzyme (Nhe I/pSGEM, Eco RI/pSP64). cRNA was synthesized from 1 μg linearized cDNA by in vitro transcription (mMessage mMachine T7 or SP6 kit, Ambion, Life Technologies Darmstadt, Germany). cRNA concentrations were determined by photometry (Nanodrop, Peqlab, Erlangen, Germany) and cRNA quality was checked by agarose gel electrophoresis. […]
# (§3) TEVC measurements were performed using a TurboTec-10CD amplifier (npi Electronic, Tamm, Germany) and an ITC-16 AD/DA-interface (Instrutech Corporation, Port Washington, New York, USA). […] Tail currents were recorded at −120 mV. […]
# [2] = target: T312S/KCNE1 (Homo sapiens, UniProt P15382+P51787, T312S); experiment: TEVC, mutant channel T312S/KCNE1 in oocytes; conditions: Kv7.1 T312S mutant with KCNE1
# From the text: as §1, §2, §3
# [3] = target: A344C/KCNE1 (Homo sapiens, UniProt P15382+P51787, A344C); experiment: TEVC, mutant channel A344C/KCNE1 in oocytes; conditions: Kv7.1 A344C mutant with KCNE1
# From the text: as §1, §2, §3
# [4] = target: V241A/KCNE1 (Homo sapiens, UniProt P15382+P51787, V241A); experiment: TEVC, mutant channel V241A/KCNE1 in oocytes; conditions: Kv7.1 V241A mutant with KCNE1
# From the text: as §1, §2, §3
# [5] = target: I337V/KCNE1 (Homo sapiens, UniProt P15382+P51787, I337V); experiment: TEVC, mutant channel I337V/KCNE1 in oocytes; conditions: Kv7.1 I337V mutant with KCNE1
# From the text: as §1, §2, §3
# [6] = system: Kv7.1/KCNE2–5; experiment: TEVC, Kv7.1 co-expressed with other KCNE isoforms; conditions: 1 μM
# [7] = system: T1, Kv7.2; experiment: TEVC, Kv7.2 channels; conditions: 1 μM
# T1 construct: expressed in transfected cells
# [8] = system: T2, Kv1.5; experiment: TEVC, Kv1.5 channels; conditions: 1 μM
# T2 construct: expressed in transfected cells
structure (smiles),measurement,setting,value
"CC(C)(Oc1ccc(Cl)cc1)C(=O)NC1C2CC3CC1CC(NS(C)(=O)=O)(C3)C2 (centres unmarked) [AC-1, 2-(4-chlorophenoxy)-2-methyl-N-[5-[(methylsulfonyl)amino]tricyclo[3.3.1.13,7]dec-2-yl]-propanamide]",IC50,[1],0.327 ± 0.083 µM
same,IC50,[2],> 50 µM
same,IC50,[3],1 ± 0.2 µM
same,IC50,[4],0.234 ± 0.015 µM
same,IC50,[5],6 ± 1.6 µM
same,sensitivity of Kv7.1/KCNE2-5 currents,[6],insensitive
same,effect on Kv7.2,[7],does not affect
same,effect on Kv1.5,[8],does not affect
